Data as given in patent publication US11369665B2, “Anti-inflammatory peptides and composition comprising the same” (GemVax & KAEL Co., Ltd., priority 2012, dated 2022).

What was measured:
TNF-α = TNF-α ELISA in LPS-stimulated PBMC-derived monocytes; assay type: cell-based, human; conditions: LPS 10 ng/ml 2 hrs, starved 1 hr, 4 uM for 2 hrs, ELISA of culture medium
Procedure: PBMC (peripheral blood mononuclear cell) was separated from the blood samples (50 ml) collected from healthy subjects using Ficoll-Paque™ PLUS (CYTIVA™, Piscataway, N.J., USA). PBMCs were then enriched in complete RPMI 1640 medium containing 20% of human serum, followed by transferring to 100 mm polystyrene cell culture plate coated with human serum for 30 mins. […]
To see the effect of PEP-1 on TNF-α level in terms of protein expression level. […] After culturing, cell soup was collected, and the amount of TNF-α was measured using ELISA kit (R&D, Minneapolis, Minn., USA) as follows:
TNF measurement uses sandwich ELISA method. […] Again, plate was washed, and avidin/biotin was added for measuring the absorbance. TNF-α level of each sample was quantified using the standard graph calculated from the absorbance of standard solution.
PBMC-derived monocytes were stimulated with endotoxin LPS (10 ng/ml) for 2 hrs, starved for 1 hr using OPTI-MEM®, and then 4 uM of FITC, FITC-TAT, PEP 1-FITC and FITC-PEP 1 were treated for 2 hrs. After incubation, TNF-α level was measured with cell culture medium using ELISA.

neural stem cells = assay: Amyloid-β toxicity assessment on neural stem cells; assay type: cell-based, rat; conditions: 20 μM amyloid-β protein, 48 hours
Procedure: After removing the cortex from the head of an embryonic rat that had been pregnant for 13 days, it was cultured for a week with Basic Fibroblast Growth Factor (bFGF) to obtain the neural stem cells. To analyze the effects of the amyloid-β protein on the neural stem cells, the pre-oligomerized amyloid-β protein of concentrations 0 to 40 μM was treated on neural stem cells for 48 hours, then CCK-8 assay, BrdU, and TUNEL assay were used for cytotoxicity assessment (refer from BA Yankner et al, 1990 and K N Dahlgren et al, 2002).

GADD 153 = assay: 2D-electrophoresis protein expression in neural stem cells; assay type: cell-based, rat; conditions: 20 ug β-amyloid treated group, versus negative control 1.0
Procedure: (§1) Protein expression level of PEP-1 treated group and untreated group was analyzed by 2D-electrophoresis technique and antibody microarray technique. Prepared 200 μg by extracting proteome from the neural stem cells cultured in Experiment 3-1 of Example 3. In addition, the group in which PEP-1 was not treated was used as the comparison group in the same condition.
(§2) 2D-electrophoresis was performed using 12% acrylamide gels. First gel electrophoresis was performed at PI 4˜10 N, using a gel size of 8.5×7 cm. After electrophoresis, it was dyed with Colloidal Coomassie Blue, and then compared expression by using PDQuest software to analyze each spot.
(§3) Difference in the expression levels of more than 1.5 times was identified using MALDI-TOF MS (Matrix Desorption/Ionization Time of Flight Mass Spectromestry). Among these, proteins correlated with inflammation-related signaling, such as i-NOS and HMGB-1 were identified (Refer to Table 6). The changes in protein expression levels either increased or decreased by 1.5 times by amyloid-β protein, but it was confirmed that expression level was regulated close to that of negative control when PEP-1 was added (Refer to FIGS. 14A-14B).
(§4) The Table 6 below is an analysis of expression levels of proteins associated with inflammation by 2D electrophoresis technique. The control group represents protein expression level of cells that were not treated with neither amyloid-β protein nor PEP-1.

HMGB1 = assay: as above; assay type: cell-based, rat; conditions: 20 ug β-amyloid treated group, versus negative control 1.0
Procedure: as §1, §2, §3, §4

HSP 70 = assay: as above; assay type: cell-based, rat; conditions: 20 ug β-amyloid treated group, versus negative control 1.0
Procedure: as §1, §2, §3, §4

HSP 90 = assay: as above; assay type: cell-based, rat; conditions: 20 ug β-amyloid treated group, versus negative control 1.0
Procedure: as §1, §2, §3, §4

MAP Kinase = assay: as above; assay type: cell-based, rat; conditions: 20 ug β-amyloid treated group, versus negative control 1.0
Procedure: as §1, §2, §3, §4

Pyk2 = assay: as above; assay type: cell-based, rat; conditions: 20 ug β-amyloid treated group, versus negative control 1.0
Procedure: as §1, §2, §3, §4

e-NOS = assay: as above; assay type: cell-based, rat; conditions: 20 ug β-amyloid treated group, versus negative control 1.0
Procedure: as §1, §2, §3, §4

i-NOS = assay: as above; assay type: cell-based, rat; conditions: 20 ug β-amyloid treated group, versus negative control 1.0
Procedure: as §1, §2, §3, §4

Substance	TNF-α level (TNF-α) [ng/mL]	cell survival (neural stem cells) [%]	GADD 153 expression (fold) (GADD 153)	HMGB1 expression (fold) (HMGB1)	HSP 70 expression (fold) (HSP 70)	HSP 90 expression (fold) (HSP 90)	MAP Kinase expression (fold) (MAP Kinase)	Pyk2 expression (fold) (Pyk2)	e-NOS expression (fold) (e-NOS)	i-NOS expression (fold) (i-NOS)
Fluorescein Isothiocyanate [FITC]	6.2	–	–	–	–	–	–	–	–	–
amyloid-β protein [reference compound]	–	60	1.6	−1.5	−2.3	−1.8	2.2	2.0	1.9	1.9
